From patent US20230183216A1, “PYRIDIZIN-3(2H)-ONE DERIVATIVES” (Gilead Sciences, Inc., priority 2021, published 2023)

What was measured:
[1] = system: STAT1 (phosphorylated at Tyr701) in NCI-H1373 cells; assay: Phospho-STAT1 (Tyr701) LANCE Ultra TR-FRET Detection Assay; type: cell-based; conditions: Homo sapiens, 48 hours, induction of pSTAT1, normalized to 10 uM positive control and DMSO, 4-parameter fit, read-out: NH1373 pSTAT1 EC50
In short: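 Endogenous STAT1 Tyr701 phosphorylation induced by compound was measured after seeding 30,000 cells/well onto compound-spotted plates and incubating 48 h at 37 °C, 5% CO2. Lysates were incubated with a sandwich antibody pair overnight at room temperature, and TR-FRET emission was read at 665 and 620 nm.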

PARP7 = target: T1, PARP7 (Homo sapiens, UniProt Q7Z3E1); assay: biochemical;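 also: MSD light signal quantifying PARP7 captured by a plate-immobilized probe, read after 1.5 h equilibration plus 1.5 h with SULFO-TAG anti-GST antibody at room temperature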
T1 sequence (Q7Z3E1 1-657): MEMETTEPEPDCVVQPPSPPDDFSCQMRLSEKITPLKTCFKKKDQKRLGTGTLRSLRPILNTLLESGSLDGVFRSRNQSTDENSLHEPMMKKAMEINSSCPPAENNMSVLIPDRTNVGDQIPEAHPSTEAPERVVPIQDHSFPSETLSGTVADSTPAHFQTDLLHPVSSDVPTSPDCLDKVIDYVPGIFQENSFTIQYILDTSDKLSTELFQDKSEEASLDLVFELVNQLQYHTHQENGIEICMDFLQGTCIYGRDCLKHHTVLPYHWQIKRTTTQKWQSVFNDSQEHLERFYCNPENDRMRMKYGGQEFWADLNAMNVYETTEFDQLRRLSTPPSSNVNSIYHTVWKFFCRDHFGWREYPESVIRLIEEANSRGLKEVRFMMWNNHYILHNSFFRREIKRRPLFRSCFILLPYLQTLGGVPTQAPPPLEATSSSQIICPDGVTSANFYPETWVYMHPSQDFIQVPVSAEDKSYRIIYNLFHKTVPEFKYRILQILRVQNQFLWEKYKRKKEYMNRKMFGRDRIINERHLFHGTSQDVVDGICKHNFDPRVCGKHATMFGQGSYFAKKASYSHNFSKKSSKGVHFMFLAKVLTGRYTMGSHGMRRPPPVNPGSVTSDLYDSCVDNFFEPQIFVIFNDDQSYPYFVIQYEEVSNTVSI
Method: Probe Displacement Assay for PARP7 Displacement of a biotinylated probe (RBN011147; Wigle et al., Cell Chemical Biology, 2020, pp. 877-887) from the PARP7 NAD+-binding site was measured in vitro using a Mesoscale Discovery electrochemiluminescent assay. […] Next, 10 μl of 10 nM PARP7 protein incubated for 1 hour at room temperature with a dose response curve of each test compound in a Greiner LDV polypropylene plate (#781201) is added to the MSD plate containing the immobilized probe. The interaction is allowed to reach equilibrium for 1.5 hours, and then 10 ul of SULFO-TAG labeled anti-GST antibody (Cat #R32AA-1) is added to each well and allowed to incubate for an additional 1.5 hours at room temperature. Finally, 10 μl of MSD read buffer T (4×, Cat. #R92C-1) is added to each well using a Bravo liquid handler to prevent air bubbles in the wells, and the plates are subsequently read in an MSD instrument. Light intensity is then measured to quantify the amount of PARP7 bound to the immobilized probe on the plate.

Row | SMILES | EC50 [1] | IC50 (PARP7)
1 | CC(C)(CCNc1cc(C(F)(F)F)c(=O)[nH]n1)C(=O)N1CCN(c2ncc(C(F)(F)F)cn2)CC1 [Example 71, 3-[[3,3-dimethyl-4-oxo-4-[4-[5-(trifluoromethyl)pyrimidin-2-yl]piperazin-1-yl]butyl]amino]-5-(trifluoromethyl)-1H-pyridazin-6-one] | 2560 nM | 1.33 nM
2 | N#Cc1ccc(N2CCN(C(=O)CCCNc3cc(C(F)(F)F)c(=O)[nH]n3)CC2)nc1 [Example 54, 6-[4-[4-[[6-oxo-5-(trifluoromethyl)-1H-pyridazin-3-yl]amino]butanoyl]piperazin-1-yl]pyridine-3-carbonitrile] | 690 nM | 0.408 nM
3 | O=C(CC[C@@H]1Cc2ccccc2N1c1cc(C(F)(F)F)c(=O)[nH]n1)N1CCN(c2ncc(C(F)(F)F)cn2)CC1 [Example 50, 3-[(2R)-2-[3-oxo-3-[4-[5-(trifluoromethyl)pyrimidin-2-yl]piperazin-1-yl]propyl]indolin-1-yl]-5-(trifluoromethyl)-1H-pyridazin-6-one] | 221 nM | 0.357 nM
4 | O=C(CCCc1cc(C(F)(F)F)c(=O)[nH]n1)N1CCN(c2ncc(C(F)(F)F)cn2)CC1 [Example 11, 6-(4-oxo-4-(4-(5-(trifluoromethyl)pyrimidin-2-yl)piperazin-1-yl)butyl)-4-(trifluoromethyl)pyridazin-3(2H)-one] | 1500 nM | 4.67 nM
5 | Cc1cc(CCCCC(=O)N2CCN(c3ncc(C(F)(F)F)cn3)CC2)n[nH]c1=O [Example 68, 5-methyl-3-[5-oxo-5-[4-[5-(trifluoromethyl)pyrimidin-2-yl]piperazin-1-yl]pentyl]-1H-pyridazin-6-one] | 1320 nM | 5.66 nM
6 | O=C(CCNc1cc(C(F)(F)F)c(=O)[nH]n1)N1CCN(c2ncc(C(F)(F)F)cn2)CC1 [Example 17, 6-((3-oxo-3-(4-(5-(trifluoromethyl)pyrimidin-2-yl)piperazin-1-yl)propyl)amino)-4-(trifluoromethyl)pyridazin-3(2H)-one] | 973 nM | 12.1 nM
7 | O=C(N1CCN(c2ncc(C(F)(F)F)cn2)CC1)C(F)(F)CCNc1cc(C(F)(F)F)c(=O)[nH]n1 [Example 72, 3-[[3,3-difluoro-4-oxo-4-[4-[5-(trifluoromethyl)pyrimidin-2-yl]piperazin-1-yl]butyl]amino]-5-(trifluoromethyl)-1H-pyridazin-6-one] | 206 nM | 0.497 nM
8 | O=C(Cc1ccccc1-c1cc(C(F)(F)F)c(=O)[nH]n1)N1CCN(c2ncc(C(F)(F)F)cn2)CC1 [Example 4, 6-(2-(2-oxo-2-(4-(5-(trifluoromethyl)pyrimidin-2-yl)piperazin-1-yl)ethyl)phenyl)-4-(trifluoromethyl)pyridazin-3(2H)-one] | ≥ 10000 nM | 36.3 nM
9 | O=C(CCC[C@H]1CCc2c1n[nH]c(=O)c2C(F)(F)F)N1CCN(c2ncc(C(F)(F)F)cn2)CC1 [Example 79, (S)-7-(4-oxo-4-(4-(5-(trifluoromethyl)pyrimidin-2-yl)piperazin-1-yl)butyl)-4-(trifluoromethyl)-2,5,6,7-tetrahydro-3H-cyclopenta[c]pyridazin-3-one] | 316 nM | 2.71 nM
10 | O=C(CCc1cc(C(F)(F)F)c(=O)[nH]n1)N1CCN(c2ncc(C(F)(F)F)cn2)CC1 [Example 7, 6-(3-oxo-3-(4-(5-(trifluoromethyl)pyrimidin-2-yl)piperazin-1-yl)propyl)-4-(trifluoromethyl)pyridazin-3(2H)-one] | 349 nM | 0.958 nM
11 | CN(c1cccc(C(=O)N2CCN(c3ncc(C(F)(F)F)cn3)CC2)c1)c1cc(C(F)(F)F)c(=O)[nH]n1 [Example 29, 6-(methyl(3-(4-(5-(trifluoromethyl)pyrimidin-2-yl)piperazine-1-carbonyl)phenyl)amino)-4-(trifluoromethyl)pyridazin-3(2H)-one] | ≥ 10000 nM | 30.6 nM
12 | O=C(N1CCN(c2ncc(C(F)(F)F)cn2)CC1)N1CCC[C@H](Nc2cc(C(F)(F)F)c(=O)[nH]n2)C1 [Example 39, (S)-4-(trifluoromethyl)-6-((1-(4-(5-(trifluoromethyl)pyrimidin-2-yl)piperazine-1-carbonyl)piperidin-3-yl)amino)pyridazin-3(2H)-one] | 1030 nM | 0.719 nM
13 | CN(CCCC(=O)N1CCN(c2ncc(C(F)(F)F)cn2)CC1)c1cc(C(F)(F)F)c(=O)[nH]n1 [Example 32, 6-(methyl(4-oxo-4-(4-(5-(trifluoromethyl)pyrimidin-2-yl)piperazin-1-yl)butyl)amino)-4-(trifluoromethyl)pyridazin-3(2H)-one] | 75.6 nM | 0.233 nM
14 | O=C(CCCNc1cc(C(F)(F)F)c(=O)[nH]n1)N1CCN(c2ncc(C(F)(F)F)cn2)CC1 [Example 15, 6-((4-oxo-4-(4-(5-(trifluoromethyl)pyrimidin-2-yl)piperazin-1-yl)butyl)amino)-4-(trifluoromethyl)pyridazin-3(2H)-one] | 71.9 nM | 0.263 nM
